Test results published in ChEMBL document CHEMBL4334529, “Polypropionate Derivatives with Mycobacterium tuberculosis Protein Tyrosine Phosphatase B Inhibitory Activities from the Deep-Sea-Derived Fungus Aspergillus fischeri FS452” (J Nat Prod, 2019).
Active and inactive are the calls of the source. The rule behind the calls is not given here.

Columns and labels:
[1] = molecular target: T1, Phosphotyrosine protein phosphatase (Mycobacterium tuberculosis, UniProt A0A045ISB3); experiment: Inhibition of Mycobacterium tuberculosis H37Rv ptpB expressed in Escherichia coli BL21 (DH3) cells using 6,8-difluoromethylumbelliferyl phosphate as substrate incubated for 30 mins by fluorescence based assay
T1 sequence (A0A045ISB3 whole entry): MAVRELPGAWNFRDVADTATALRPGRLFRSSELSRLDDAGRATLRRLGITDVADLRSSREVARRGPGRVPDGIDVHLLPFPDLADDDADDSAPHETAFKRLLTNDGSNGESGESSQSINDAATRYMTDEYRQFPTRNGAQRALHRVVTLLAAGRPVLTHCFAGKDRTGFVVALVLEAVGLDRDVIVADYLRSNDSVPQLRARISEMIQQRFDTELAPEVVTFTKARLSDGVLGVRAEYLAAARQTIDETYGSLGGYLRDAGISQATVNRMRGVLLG

Candida albicans = experiment: Antifungal activity against Candida albicans; assay type: functional, organism-based
[2] = molecular target: T1, Phosphotyrosine protein phosphatase; experiment: Non-competitive inhibition of Mycobacterium tuberculosis H37Rv ptpB expressed in Escherichia coli BL21 (DH3) cells using p-nitrophenyl phosphate as substrate incubated for 30 mins by Lineweaver-Burk blot analysis

Compound	IC50 ([1]; read-out: IC50)	Activity (Candida albicans)	Ki [2]	IC50 [1]
CC[C@H](C)C[C@H](C)C[C@H](CO)C[C@@H](C)/C=C(C)/C=C(C)\C=C\C=C\C(=O)N1CCCC(O)C1=O (some centres not stated)	> 50 µM	inactive		
C/C(=C\[C@H](C)C[C@@H](C)C[C@@H](C)C[C@@H](C)[C@@H](C)O)C(=O)NCCC(=O)O	> 50 µM	inactive		
CC[C@H](C)C[C@H](C)C[C@H](CO)C[C@@H](C)/C=C(C)/C=C(C)/C=C/C=C/C(=O)N1CCCC(O)C1=O (some centres not stated)	11 µM	inactive	16 µM	
CC[C@H](C)C[C@H](C)C[C@@H]1CO[C@@H](\C(C)=C/C(=C/C=C/CC(=O)O)C(=O)O)[C@H](C)C1	12 µM	inactive	7 µM	
CC1(C)CC[C@]2(C(=O)O)CC[C@]3(C)C(=CC[C@@H]4[C@@]5(C)CC[C@H](O)C(C)(C)[C@@H]5CC[C@]43C)[C@@H]2C1 [OLEANOLIC_ACID]				14 µM
CC[C@H](C)C[C@H](C)C[C@@H]1CO[C@@H](/C(C)=C/C(=C\C=C\CC(=O)O)C(=O)O)[C@H](C)C1	5.1 µM	inactive	8.9 µM	
CC[C@H](COC(C)=O)C[C@H](C)C[C@H](C)C[C@@H](C)/C=C(C)/C=C(/C=C/C=C/C(=O)O)C(=O)O	4 µM	inactive	5.2 µM	
